pIC50: −log10 of the molar value.
Columns and labels:
A549 = experiment: Antiproliferative activity against human A549 cells assessed as cell viability after 72 hrs by MTT assay; type: functional
HCT-116 [1] = experiment: Antiproliferative activity against human HCT-116 cells assessed as cell viability after 72 hrs by MTT assay; type: functional
HepG2 = experiment: Antiproliferative activity against human HepG2 cells assessed as cell viability after 72 hrs by MTT assay; type: functional
HCT-116 [2] = experiment: Induction of cell cycle arrest in human HCT-116 cells assessed as accumulation of cells at G1 phase at 20 nM after 24 hrs by flow cytometry (reference value: 40.5%); type: functional
HCT-116 [3] = experiment: Induction of apoptosis in human HCT-116 cells assessed as early apoptotic cells at 20 nM after 24 hrs by annexinV and 7-ADD staining based flow cytometry (reference value: 0.9%); type: functional
HCT-116 [4] = experiment: Induction of apoptosis in human HCT-116 cells assessed as early apoptotic cells at 10 nM after 24 hrs by annexinV and 7-ADD staining based flow cytometry (reference value: 0.9%); type: functional
Tubulin (Homo sapiens) [5] = target: T1, Tubulin (Homo sapiens) (UniProt P68371+Q9H4B7+P0DPH7+P68366+Q13509+Q71U36+P04350+Q3ZCM7+P07437+P68363+Q9BQE3+Q6PEY2+Q13885+Q9BVA1+Q9BUF5); experiment: Inhibition of tubulin polymerization in human HCT-116 cells assessed as microtubule spindle formation after 24 hrs by immunofluorescence analysis; type: cell-based; details: dose 20-40 nM
HCT-116 [6] = experiment: Induction of apoptosis in human HCT-116 cells assessed as viable cells at 20 nM after 24 hrs by annexinV and 7-ADD staining based flow cytometry (reference value: 96.7%); type: functional; details: read-out: Activity
HCT-116 [7] = experiment: Induction of apoptosis in human HCT-116 cells assessed as late apoptotic cells at 40 nM after 24 hrs by annexinV and 7-ADD staining based flow cytometry (reference value: 1.5%); type: functional
HCT-116 [8] = experiment: Induction of apoptosis in human HCT-116 cells assessed as viable cells at 10 nM after 24 hrs by annexinV and 7-ADD staining based flow cytometry (reference value: 96.7%); type: functional; details: read-out: Activity
[9] = Toxicity in nude mouse xenografted with human HCT-116 cells assessed as change in body weight at 25 mg/kg, po for 21 days (reference value: 2.2%); type: organism-based; details: in vivo, 504 h, time 21 day
Tubulin (Homo sapiens) [10] = target: T1, Tubulin (Homo sapiens); experiment: Inhibition of tubulin polymerization in human HCT-116 cells assessed as complete microtubule depolymerization at 40 nM after 24 hrs by immunofluorescence analysis; type: cell-based
HCT-116 [11] = experiment: Induction of cell cycle arrest in human HCT-116 cells assessed as accumulation of cells at G1 phase at 10 nM after 24 hrs by flow cytometry (reference value: 40.5%); type: functional
Tubulin (Homo sapiens) [12] = target: T1, Tubulin (Homo sapiens); experiment: Inhibition of tubulin polymerization in human HCT-116 cells assessed as microtubule network polymerization after 24 hrs by immunofluorescence analysis; type: cell-based; details: dose 20-40 nM
1-87 tumor cell line = experiment: (§1) Inhibition of porcine brain tubulin polymerization by fluorescence based assay; details: Sus scrofa domesticus
[13] = as §1; type: cell-based, Sus scrofa domesticus, 1-87 tumor cell line
[14] = Toxicity in nude mouse xenografted with human HCT-116 cells assessed as change in body weight at 12.5 mg/kg, po for 21 days (reference value: 2.2%); type: organism-based; details: in vivo, 504 h, time 21 day
HCT-116 [15] = experiment: Induction of cell cycle arrest in human HCT-116 cells assessed as accumulation of cells at G2/M phase at 10 nM after 24 hrs by flow cytometry (reference value: 16.35%); type: functional
SW-620 = experiment: Antiproliferative activity against human SW-620 cells assessed as cell viability after 72 hrs by MTT assay; type: functional
HCT-116 [16] = experiment: Induction of cell cycle arrest in human HCT-116 cells assessed as accumulation of cells at S phase at 10 nM after 24 hrs by flow cytometry (reference value: 43.12%); type: functional
[17] = Cytotoxicity against HUVEC assessed as cell viability after 72 hrs by MTT assay; type: cell-based; details: human, HUVEC cells
HCT-116 [18] = experiment: Induction of cell cycle arrest in human HCT-116 cells assessed as accumulation of cells at S phase at 20 nM after 24 hrs by flow cytometry (reference value: 43.12%); type: functional
HCT-116 [19] = experiment: Induction of apoptosis in human HCT-116 cells assessed as necrotic cells at 10 nM after 24 hrs by annexinV and 7-ADD staining based flow cytometry (reference value: 0.9%); type: functional
HCT-116 [20] = experiment: Induction of apoptosis in human HCT-116 cells assessed as early apoptotic cells at 40 nM after 24 hrs by annexinV and 7-ADD staining based flow cytometry (reference value: 0.9%); type: functional
HCT-116 [21] = experiment: Antitumor activity against human HCT-116 cells xenografted in nude mouse assessed as inhibition of tumor growth at 25 mg/kg, po for 21 days; type: functional; details: HCT-116, po, 504 h, time 21 day, read-out: TGI
HCT-116 [22] = experiment: Induction of apoptosis in human HCT-116 cells assessed as necrotic cells at 20 nM after 24 hrs by annexinV and 7-ADD staining based flow cytometry (reference value: 0.9%); type: functional
HCT-116 [23] = experiment: Induction of apoptosis in human HCT-116 cells assessed as late apoptotic cells at 20 nM after 24 hrs by annexinV and 7-ADD staining based flow cytometry (reference value: 1.5%); type: functional
HCT-116 [24] = experiment: Induction of apoptosis in human HCT-116 cells assessed as late apoptotic cells at 10 nM after 24 hrs by annexinV and 7-ADD staining based flow cytometry (reference value: 1.5%); type: functional
HT-29 = experiment: Antiproliferative activity against human HT-29 cells assessed as cell viability after 72 hrs by MTT assay; type: functional
HCT-116 [25] = experiment: Antitumor activity against human HCT-116 cells xenografted in nude mouse assessed as inhibition of tumor growth at 12.5 mg/kg, po for 21 days; type: functional; details: HCT-116, po, 504 h, time 21 day, read-out: TGI
HCT-116 [26] = experiment: Induction of apoptosis in human HCT-116 cells assessed as viable cells at 40 nM after 24 hrs by annexinV and 7-ADD staining based flow cytometry (reference value: 96.7%); type: functional; details: read-out: Activity
HCT-116 [27] = experiment: Induction of apoptosis in human HCT-116 cells assessed as necrotic cells at 40 nM after 24 hrs by annexinV and 7-ADD staining based flow cytometry (reference value: 0.9%); type: functional
[28] = target: Tubulin beta (Homo sapiens) (UniProt P68371+Q9H4B7+Q13509+P04350+Q3ZCM7+P07437+Q13885+Q9BVA1+Q9BUF5+A6NNZ2); experiment: Inhibition of N,N'-Ethylenebis(iodoacetamide) binding to beta-tubulin in human HCT-116 cells assessed as reduction in EBI/beta-tubulin adduct formation preincubated for 2 hrs followed by EBI addition and measured after 1.5 hrs by Western blot analysis; type: cell-based; details: dose 0.2-25 µM, time 3.5 hrs
HCT-116 [29] = experiment: Induction of cell cycle arrest in human HCT-116 cells assessed as accumulation of cells at G2/M phase at 20 nM after 24 hrs by flow cytometry (reference value: 16.35%); type: functional

COc1cc(Nc2n[nH]c3cc(F)ccc23)cc(OC)c1OC gave a GI50 (A549) of 21.3 µM, a GI50 (HCT-116 [1]) of 5.3 µM and a GI50 (HepG2) of 16 µM.

COc1cc(Nc2n[nH]c3cc(C)ccc23)cc(OC)c1OC showed an Activity (HCT-116 [2]) of 14.25%, an Activity (HCT-116 [3]) of 8.9% and an Activity (HCT-116 [4]) of 4.7%. For the same compound, the GI50 (A549) was 0.033 µM, the inhibition (Tubulin (Homo sapiens) [5]) was “Dose-dependent effect” and the GI50 (HCT-116 [1]) was 0.015 µM. The viability at 0.02 µM (HCT-116 [6]) was 75.4%, the Activity (HCT-116 [7]) was 20.9% and the viability at 0.01 µM (HCT-116 [8]) was 79.9%. It also gave an Activity [9] of 6.5%, an inhibition (Tubulin (Homo sapiens) [10]) of 100% and an Activity (HCT-116 [11]) of 34.54%. The inhibition (Tubulin (Homo sapiens) [12]) was “Dose-dependent effect”, the inhibition (1-87 tumor cell line) was “Dose-dependent effect” and the pIC50 [13] was 5.47. The Activity [14] was 2.7%, the Activity (HCT-116 [15]) was 29% and the GI50 (SW-620) was 0.008 µM. For the same compound, the Activity (HCT-116 [16]) was 36.46%, the GI50 at 72 h [17] was > 25 µM and the Activity (HCT-116 [18]) was 4.68%. For the same compound, the Activity (HCT-116 [19]) was 2.7%, the Activity (HCT-116 [20]) was 15.4% and the inhibition in vivo at 25 mg/kg (HCT-116 [21]) was 45.3%. For the same compound, the Activity (HCT-116 [22]) was 2.1%, the Activity (HCT-116 [23]) was 13.7% and the Activity (HCT-116 [24]) was 12.7%. For the same compound, the GI50 (HT-29) was 0.031 µM, the inhibition in vivo at 12.5 mg/kg (HCT-116 [25]) was 27.4% and the viability at 0.04 µM (HCT-116 [26]) was 62.2%. The GI50 (HepG2) was 0.027 µM, the Activity (HCT-116 [27]) was 1.5% and the inhibition [28] was “Dose-dependent effect”. It also gave an Activity (HCT-116 [29]) of 81.07%.

With COc1ccc(Nc2n[nH]c3cc(OC)ccc23)cc1 the GI50 (A549) was > 25 µM, the GI50 (HCT-116 [1]) was 24.8 µM and the GI50 (HepG2) was > 25 µM.

COc1cc(Nc2n[nH]c3cc(C)ccc23)cc(OC)c1 showed a GI50 (A549) of 1.1 µM, a GI50 (HCT-116 [1]) of 0.7 µM and a GI50 (HepG2) of 0.2 µM.

In the case of COc1ccc(Nc2n[nH]c3cc(C)ccc23)cc1, the GI50 (A549) was > 25 µM, the GI50 (HCT-116 [1]) was > 25 µM and the GI50 (HepG2) was > 25 µM.

For COc1ccc(Nc2n[nH]c3cc(F)ccc23)cc1OC, the GI50 (A549) was > 25 µM, the GI50 (HCT-116 [1]) was 16.7 µM and the GI50 (HepG2) was > 25 µM.

For Cc1ccc2c(Nc3ccc4c(c3)OCO4)n[nH]c2c1, the GI50 (A549) was > 25 µM, the GI50 (HCT-116 [1]) was 23.7 µM and the GI50 (HepG2) was > 25 µM.

In the case of COc1cc(Nc2n[nH]c3ccc(C)cc23)cc(OC)c1OC, the GI50 (A549) was 1.1 µM, the GI50 (HCT-116 [1]) was 2.6 µM and the GI50 (HepG2) was 4 µM.

With COc1cc(Nc2n[nH]c3cc(OC)ccc23)cc(OC)c1 the GI50 (A549) was 0.51 µM, the GI50 (HCT-116 [1]) was 0.96 µM and the GI50 (HepG2) was 0.78 µM.

COc1cc(Nc2n[nH]c3cccc(C)c23)cc(OC)c1OC gave a GI50 (A549) of 6.1 µM, a GI50 (HCT-116 [1]) of 9.3 µM and a GI50 (HepG2) of 10.1 µM.

For Fc1ccc2c(Nc3ccc4c(c3)OCO4)n[nH]c2c1, the GI50 (A549) was > 25 µM, the GI50 (HCT-116 [1]) was > 25 µM and the GI50 (HepG2) was > 25 µM.

With COc1ccc(Nc2n[nH]c3ccc(C)cc23)cc1OC the GI50 (A549) was > 25 µM, the GI50 (HCT-116 [1]) was 22.3 µM and the GI50 (HepG2) was > 25 µM.

Source: ChEMBL document CHEMBL4732043, “The discovery of novel indazole derivatives as tubulin colchicine site binding agents that displayed potent antitumor activity both in vitro and in vivo” (Eur J Med Chem, 2020)
